Laboratory results reported in patent EP4603105A1, “PHARMACEUTICAL COMPOSITION CONTAINING CYCLIC COMPOUND HAVING SELECTIVE KRAS INHIBITORY EFFECT AGAINST HRAS AND NRAS” (CHUGAI SEIYAKU KABUSHIKI KAISHA, priority 2022, dated 2024).
Where a SMILES comes first, the peptide text is derived from it. Bridges are numbered along the chain shown (N, C = ends). [ ]: non-standard residue; d: D form. The star is where a group is joined. hPhe(3-Cl-4-CF3) = N[C@@H](CCc1ccc(C(F)(F)F)c(Cl)c1)C(=O)O; NPrPhe(4-CF3) = CCCN[C@@H](Cc1ccc(C(F)(F)F)cc1)C(=O)O; NMeGly(cPent) = CN[C@H](C(=O)O)C1CCCC1; Hyp = O=C(O)[C@@H]1C[C@@H](O)CN1; NMeD = CN[C@@H](CC(=O)O)C(=O)O; NMeL = CN[C@@H](CC(C)C)C(=O)O; Morpholide = C1CN(*)CCO1; Ac5c = NC1(C(=O)O)CCCC1; Sar = CNCC(=O)O

Legend:
[1] = target: GDP-bound NRAS wild-type protein (Homo sapiens, UniProt P01111); assay: Binding to NRAS by surface plasmon resonance (SPR), KD and KD ratio to KRAS
Outline: (§1)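 SPR, 30°C: Avi-biotin RAS·GDP captured via Biotin CAPture (~100–300 RU); running buffer HBS pH 7.4, 1 mM DTT, 10 mM MgCl2, 0.01% Tween 20, 10 µM GDP, 4% DMSO. Single-cycle kinetics, 100 µL/min, 75 s injections; 1:1 model → KD.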

[2] = target: HRAS wild-type protein (Homo sapiens, UniProt P01112); assay: Binding to HRAS by surface plasmon resonance (SPR), KD and KD ratio to KRAS
Outline: as §1

[3] = tested on: human lung cancer strain NCI-H441; format: cell-based
Outline: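 Proliferation was scored by […] measured after the reagent was added to cultures kept at 37°C in 5% carbon dioxide.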

[4] = ratio of KD for GDP-bound NRAS wild-type protein to KD for KRAS
[5] = ratio of KD for HRAS wild-type protein to KD for KRAS
[6] = ratio of the KD value with respect to GDP-bound NRAS wild-type protein to the KD value with respect to KRAS
[7] = ratio of the KD value with respect to HRAS wild-type protein to the KD value with respect to KRAS

Chain of HRAS wild-type protein (P01112 whole entry): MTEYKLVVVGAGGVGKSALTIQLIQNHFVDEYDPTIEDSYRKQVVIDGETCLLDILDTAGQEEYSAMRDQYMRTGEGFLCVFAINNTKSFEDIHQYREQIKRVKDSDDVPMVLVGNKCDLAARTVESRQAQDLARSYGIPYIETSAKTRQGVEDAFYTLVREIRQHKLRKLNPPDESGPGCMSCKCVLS
Chain of GDP-bound NRAS wild-type protein (P01111 whole entry): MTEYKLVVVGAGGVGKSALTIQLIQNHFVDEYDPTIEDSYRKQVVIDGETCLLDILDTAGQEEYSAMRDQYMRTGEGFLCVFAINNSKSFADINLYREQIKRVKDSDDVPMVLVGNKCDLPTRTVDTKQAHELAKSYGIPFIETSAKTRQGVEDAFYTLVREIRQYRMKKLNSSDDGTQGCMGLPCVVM

With `CCO[C@@H]1C[C@H]2C(=O)NC3(CCC3)C(=O)N(C)[C@@H](C3CCCC3)C(=O)N(C)[C@H](C(=O)N3CCOCC3)CC(=O)N(C)[C@@H](Cc3ccccc3F)C(=O)N[C@@H]([C@@H](C)CC)C(=O)N(C)CC(=O)N(C)[C@H]3CCCCCN(C3=O)[C@@H](Cc3ccc(C(F)(F)F)cc3)C(=O)N(C)CC(=O)N[C@@H](CCc3cc(F)c(C(F)(F)F)c(F)c3)C(=O)N2C1` [PP0926] the “NRAS /KRAS” value [1, 4] was “B (a compound having 3 or more and less than 10 is denoted as B)”, the “HRAS /KRAS” value [2, 5] was “B (a compound having 3 or more and less than 10 is denoted as B)” and the IC50 [3] was 113 nM.
In the case of `CC[C@H](C)[C@@H]1NC(=O)[C@H](CC(C)C)N(C)C(=O)C[C@@H](C(=O)N2CCOCC2)N(C)C(=O)[C@H](C2CCCC2)N(C)C(=O)C2(CCCC2)NC(=O)[C@@H]2CCCN2C(=O)[C@H](CCc2ccc(C(F)(F)F)c(Cl)c2)NC(=O)CN(C)C(=O)[C@H](Cc2ccc(OC)cc2)N2CCCCC[C@@H](C2=O)N(C)C(=O)CN(C)C1=O` [PP0614], the “NRAS /KRAS” value [1, 6] is reported as “B (a compound having 3 or more and less than 10 is denoted as B)”, the “HRAS /KRAS” value [2, 7] is reported as “B (a compound having 3 or more and less than 10 is denoted as B)” and the IC50 [3] is reported as 110 nM.
`CCO[C@@H]1C[C@H]2C(=O)NC3(CC(C)(C)C3)C(=O)N(C)[C@@H](C3CCCC3)C(=O)N(C)[C@H](C(=O)N(C)CC)CC(=O)N(C)[C@@H](C(C)C)C(=O)N[C@@H]([C@@H](C)CC)C(=O)N(C)CC(=O)N(C)[C@H]3C/C=C\CCN(C3=O)[C@@H](Cc3ccc(C(F)(F)F)cc3)C(=O)N(C)CC(=O)N[C@@H](CCc3ccc(C(F)(F)F)c(OC)c3)C(=O)N2C1` [PP1977] was tested, and the “NRAS /KRAS” value [1, 6] was “AA (a compound having 20 or more is denoted as AA)”, the “HRAS /KRAS” value [2, 7] was “A (a compound having 10 or more and less than 20 is denoted as A)” and the IC50 [3] was 20.2 nM.
In the case of `CCO[C@@H]1C[C@H]2C(=O)NC3(CCC3)C(=O)N(C)[C@@H](C3CCCC3)C(=O)N(C)[C@H](C(=O)N(C)C)CC(=O)N(C)[C@@H](CC)C(=O)N[C@@H]([C@@H](C)CC)C(=O)N(C)CC(=O)N(C)[C@H]3CCCCN(C3=O)[C@@H](Cc3ccc(C(F)(F)F)cc3)C(=O)N(C)CC(=O)N[C@@H](CCc3ccc(C(F)(F)F)cc3F)C(=O)N2C1` [PP0885], the “NRAS /KRAS” value [1, 4] is reported as “C (A compound having a KD ratio of 0.1 or more and less than 3 is denoted as C)”, the “HRAS /KRAS” value [2, 5] is reported as “B (a compound having 3 or more and less than 10 is denoted as B)” and the IC50 [3] is reported as 11.5 nM.
For `CCCN1C(=O)CN(C)C(=O)CN(C)C(=O)[C@H]([C@@H](C)CC)NC(=O)[C@H](CC(C)C)N(C)C(=O)C[C@@H](C(=O)N2CCOCC2)N(C)C(=O)[C@H](C2CCCC2)N(C)C(=O)C2(CCCC2)NC(=O)[C@@H]2C[C@@H](OC)CN2C(=O)[C@H](CCc2ccc(C(F)(F)F)c(Cl)c2)NC(=O)CN(C)C(=O)[C@@H]1Cc1ccc(C(F)(F)F)cc1` [PP0262] ([NMeL]I[Sar][Sar][NPrPhe(4-CF3)][Sar][hPhe(3-Cl-4-CF3)][Hyp](Me)[Ac5c][NMeGly(cPent)][NMeD]-Morpholide; lactam N-11), the “NRAS /KRAS” value [1, 4] was “B (a compound having 3 or more and less than 10 is denoted as B)”, the “HRAS /KRAS” value [2, 5] was “B (a compound having 3 or more and less than 10 is denoted as B)” and the IC50 [3] was 1.9 nM.
In the case of `CCCN(C)C(=O)[C@@H]1CC(=O)N(C)[C@@H](C2CC2)C(=O)N[C@@H]([C@@H](C)CC)C(=O)N(C)CC(=O)N(C)[C@H]2C/C=C\CCN(C2=O)[C@@H](Cc2ccc(C(F)(F)F)cc2)C(=O)N(C)CC(=O)N[C@@H](CCc2ccc(C(F)(F)F)c(OC)c2)C(=O)N2C[C@@H](C)C[C@H]2C(=O)NC2(CCC2)C(=O)N(C)[C@@H](C2CCCC2)C(=O)N1C` [PP2070], the “NRAS /KRAS” value [1, 6] is reported as “A (a compound having 10 or more and less than 20 is denoted as A)”, the “HRAS /KRAS” value [2, 7] is reported as “A (a compound having 10 or more and less than 20 is denoted as A)” and the IC50 [3] is reported as 11.3 nM.
`CC[C@H](C)[C@@H]1NC(=O)[C@H](CC(C)C)N(C)C(=O)C[C@@H](C(=O)N(C)C)N(C)C(=O)[C@H](C2CCCC2)N(C)C(=O)C2(CCC2)NC(=O)[C@@H]2CCCN2C(=O)[C@H](CCc2cc(F)c(C(F)(F)F)c(F)c2)NC(=O)CN(C)C(=O)[C@H](Cc2ccc(C(F)(F)F)cc2)N2CCCCC[C@@H](C2=O)N(C)C(=O)CN(C)C1=O` [PP0512] was tested, and the “NRAS /KRAS” value [1, 6] was “B (a compound having 3 or more and less than 10 is denoted as B)”, the “HRAS /KRAS” value [2, 7] was “B (a compound having 3 or more and less than 10 is denoted as B)” and the IC50 [3] was 29.4 nM.
For `CCO[C@@H]1C[C@H]2C(=O)NC3(CC(C)(C)C3)C(=O)N(C)[C@@H](C(CC)CC)C(=O)N(C)[C@H](C(=O)N(C)C)CC(=O)N(C)[C@@H](CC)C(=O)N[C@@H]([C@@H](C)CC)C(=O)N(C)CC(=O)N(C)[C@H]3C/C=C\CCN(C3=O)[C@@H](Cc3ccc(C)cc3)C(=O)N(C)CC(=O)N[C@@H](CCc3ccc(C(F)(F)F)c(OC)c3)C(=O)N2C1` [PP2170], the “NRAS /KRAS” value [1, 6] was “A (a compound having 10 or more and less than 20 is denoted as A)”, the “HRAS /KRAS” value [2, 7] was “A (a compound having 10 or more and less than 20 is denoted as A)” and the IC50 [3] was 8.5 nM.
